Laboratory results: patent US20090118286A1, “Heterobicyclic Acrylamides” (Bayer Cropscience AG, priority 2005, published 2009)
Read-outs that look alike come from different tables or passages of the source.

Legend:
[1] = log P determination by HPLC (EEC Directive 79/831 Annex V.A8, gradient method); assay type: physicochemical; details: HPLC, gradient method, acetonitrile/0.1% strength aqueous phosphoric acid or formic acid
[2] = system: caterpillars of the army worm (Spodoptera frugiperda); test: Spodoptera frugiperda test, SPODFR spray treatment; assay type: in vivo; details: foliar, 168 h, 500 g a. i./ha, spray treatment of maize leaf discs, 7 d, read-out: % 7 d (effect in %, caterpillars killed)
Experimental: (§1) [table] To produce a suitable preparation of active compound, 1 part by weight of active compound is mixed with the stated amounts of solvents and emulsifier, and the concentrate is diluted with emulsifier-containing water to the desired concentration. Discs of maize leaves (Zea mays) are sprayed with a preparation of active compound of the desired concentration and, after drying, populated with caterpillars of the army worm (Spodoptera frugiperda). After the desired period of time, the effect in % is determined. 100% means that all caterpillars have been killed; 0% means that none of the caterpillars have been killed.

[3] = system: larvae of the mustard beetle (Phaedon cochleariae); test: Phaedon test, PHAECO spray treatment; assay type: in vivo; details: foliar, 168 h, 500 g a. i./ha, spray treatment of Chinese cabbage leaf discs, 7 d, read-out: % 7 d (effect in %, beetle larvae killed)
Experimental: as §1, with “of Chinese cabbage” for “of maize”, “leaves (Brassica pekinensis)” for “leaves (Zea mays)”, “with larvae” for “with caterpillars”, “the mustard beetle (Phaedon cochleariae).” for “the army worm (Spodoptera frugiperda).”, “all beetle larvae” for “all caterpillars”, “the beetle larvae” for “the caterpillars”

Sphaerotheca fuliginea = test: Sphaerotheca test (cucumber)/protective; assay type: in vivo; details: application rate 500 ppm, protective, evaluation 7 days after inoculation
Experimental: [table] To produce a suitable preparation of active compound, 1 part by weight of active compound is mixed with the stated amounts of solvent and emulsifier, and the concentrate is diluted with water to the desired concentration. To test for protective activity, young cucumber plants are sprayed with the preparation of active compound at the stated application rate. 1 day after the treatment, the plants are inoculated with a spore suspension of Sphaerotheca fuliginea. The plants are then placed in a greenhouse at 70% relative atmospheric humidity and a temperature of 23° C. Evaluation is carried out 7 days after the inoculation. 0% means an efficacy which corresponds to that of the control, whereas an efficacy of 100% means that no infection is observed.

Botrytis cinerea = test: Botrytis test (bean)/protective; assay type: in vivo; details: application rate 500 ppm, protective, evaluation 2 days after inoculation
Experimental: [table] To produce a suitable preparation of active compound, 1 part by weight of active compound is mixed with the stated amounts of solvents and emulsifier, and the concentrate is diluted with water to the desired concentration. To test for protective activity, young plants are sprayed with the preparation of active compound at the stated application rate. After the spray coating has dried on, 2 small pieces of agar colonized by Botrytis cinerea are placed onto each leaf. The inoculated plants are placed in a dark chamber at about 20° C. and 100% relative atmospheric humidity. 2 days after the inoculation, the size of the infected areas on the leaves is evaluated. 0% means an efficacy which corresponds to that of the control, whereas an efficacy of 100% means that no infection is observed.

| chromatographic logP ([1]; read-out: Physical data: logP) | chromatographic logP ([1]; read-out: Physical data (logP)) | SMILES | pest or weed control at 500 g/ha [2] | pest or weed control at 500 g/ha [3] | also measured |
| --- | --- | --- | --- | --- | --- |
| 3.07 | – | O=C(/C=C/c1c(-c2ccccc2Cl)nc2sc(C(F)(F)Cl)nn12)NC1CC1 [Example 0728] | 100% | 100% | – |
| – | – | CC(C)CN(C)C(=O)/C=C/c1c(-c2ccccc2)nc2sc(C(F)(F)F)nn12 [Example 0913] | – | – | Efficacy in % (Sphaerotheca fuliginea): 90% |
| – | 3.26 | O=C(/C=C/c1c(-c2ccccc2Cl)nc2sc(C(F)(F)F)nn12)NCC1CC1 [Example 0166] | – | 100% | – |
| – | 2.39 | CC(NC(=O)/C=C/c1c(-c2ccccc2Cl)nc2sc(C(F)(F)F)nn12)c1ccccn1 (stereo not drawn) [Example 0203] | 100% | 83% | – |
| 3.36 | – | CC(C)NC(=O)/C=C/c1c(-c2ccccc2Cl)nc2sc(C(F)(F)Cl)nn12 [Example 0724] | 100% | 100% | – |
| – | – | CCN(CC)C(=O)/C=C/c1c(-c2ccccc2)nc2sc(C(F)(F)F)nn12 [Example 0912] | – | – | Efficacy in % (Botrytis cinerea): 93%; Efficacy in % (Sphaerotheca fuliginea): 95% |
| – | 3.13 | CC(C)NC(=O)/C=C/c1c(-c2ccccc2Cl)nc2sc(C(F)(F)F)nn12 [Example 0148] | 100% | 83% | – |
| – | 2.88 | O=C(/C=C/c1c(-c2ccccc2Cl)nc2sc(C(F)(F)F)nn12)NC1CC1 [Example 0152] | – | 100% | – |
| – | – | O=C(/C=C/c1c(-c2ccc(F)cc2Cl)nc2sc(C(F)(F)F)nn12)NC1CC1 [Example 0585] | 100% | 100% | chromatographic logP ([1]; read-out: Physical data: log P): 3.03 |
| – | – | CC(NC(=O)/C=C/c1c(-c2cc(Cl)ccc2Cl)nc2sc(C(F)(F)F)nn12)C(F)(F)F (stereo not drawn) [Example 0729] | – | 100% | – |
| 3.37 | – | COc1ccc(-c2nc3sc(C(F)(F)F)nn3c2/C=C/C(=O)NC(C)(C)C)cc1OC [Example 0654] | – | 100% | – |
| – | – | CC(NC(=O)/C=C/c1c(-c2cccc(C(F)(F)F)c2)nc2sc(C(F)(F)F)nn12)c1ccccn1 (stereo not drawn) [Example 0416] | – | 100% | chromatographic logP ([1]; read-out: Physical data: log P): 3.03 |
| – | 3.95 | C=CCN(C)C(=O)/C=C/c1c(-c2ccc(Cl)cc2)nc2sc(C(F)(F)F)nn12 [Example 0067] | – | – | Efficacy in % (Sphaerotheca fuliginea): 90% |
| – | 3.31 | O=C(/C=C/c1c(-c2cccc(Cl)c2)nc2sc(C(F)(F)F)nn12)N1CCOCC1 [Example 0142] | – | 100% | – |
| – | – | CC(NC(=O)/C=C/c1c(-c2ccc(F)cc2Cl)nc2sc(C(F)(F)F)nn12)C(F)(F)F (stereo not drawn) [Example 0598] | 100% | 100% | chromatographic logP ([1]; read-out: Physical data: log P): 3.79 |
| 3.26 | – | CC(NC(=O)/C=C/c1c(-c2ccc(Cl)c(Cl)c2)nc2sc(C(F)(F)F)nn12)c1ccccn1 (stereo not drawn) [Example 0793] | – | 100% | – |
| 4.06 | – | CCCC(C)NC(=O)/C=C/c1c(-c2ccccc2Cl)nc2sc(C(F)(F)Cl)nn12 (stereo not drawn) [Example 0734] | 100% | 100% | – |
| 3.67 | – | CCC(C)NC(=O)/C=C/c1c(-c2ccccc2Cl)nc2sc(C(F)(F)Cl)nn12 (stereo not drawn) [Example 0733] | 100% | – | – |
| – | – | CCC(C)NC(=O)/C=C/c1c(-c2ccccc2F)nc2sc(C(F)(F)F)nn12 (stereo not drawn) [Example 0451] | 100% | – | chromatographic logP ([1]; read-out: Physical data: log P): 3.33 |
| – | – | CC(C)NC(=O)/C=C/c1c(-c2ccc(F)cc2)nc2sc(C(F)(F)F)nn12 [Example 0300] | 100% | – | chromatographic logP ([1]; read-out: Physical data: log P): 3.24 |
